Test results as given in patent publication US20130004581A1, “CONTROLLING UPTAKE BY CELLS” (Ramot at Tel-Aviv University Ltd., priority 2010, published 2013).

Key:
COS 5-7 cells = assay: Uptake after one minute of chemically induced low pH (HCl added to HBSS suspension), FACS; type: cell-based, African green monkey; settings: for Folds Uptake mean: 1 min, 10 μM Dextran-FITC
Method: The following tables show a connection between pH and current. […] The values in the tables are shown as folds relative to the uptake in cells unexposed to any of the treatments. […] The results are expected to be substantially independent of cell type and molecule used, except for a cell-specific change and a molecule specific change.
Cells (COS 5-7) were harvested, re-suspended in DMEM (1 mg/ml glucose, 5% FCS), and incubated (37°, 5% CO2) as designated by the experiment. For uploading the cells with either H2DCF-DA (20 μM) or Bis-DHA (1 mM) incubation lasted 90 minutes. When no pre-treatments were required, the cells were kept in the DMEM for 30 minutes. Following incubation, the cells were centrifuged at 400g for 1 min, the solution aspirated, and cells re-suspended in HBSS exposure media.
Exposure of cells to pulse acidification was through the addition of HCl to the HBSS suspension for 60 seconds, terminated by the addition of a three fold larger volume of DMEM-H.
Cell suspensions were centrifuged (400g for one minute), their solutions aspirated and they were re-suspended with 0.5 ml DMEM-H supplemented with 10u/ml dextranase (Sigma-Aldrich) for 10 minutes at RT. Cells were centrifuged again; their solution aspirated and they were re-suspended with 0.2 ml DMEM-H. PI (25 μg/ml) as a label for permeabilized cells and tryphan blue (0.01% w/v) as a fluorescence quenching agent for extracellular FITC (36) were added to each sample shortly before analysis
Flow cytometry analysis was carried out by FACSort (Becton @ Dickson, San Jose, Calif.), employing a 488-nm argon laser excitation. The green fluorescence of FITC was measured via 530/30 nm filter, the red fluorescence of PI was detected via a 585/42 nm filter. […] Ten thousand cells were examined for each sample and data were collected in the list mode. The analysis of flow cytometry data was performed using WINMDI 2.9 software (Joe Trotter, The Scripps Research Institute). For each sample the geometrical mean was calculated without including PI stained cells. Cell intensity was determined as fold of induction relative to cells' constitutive uptake.
After one minute incubation, cell suspensions were immediately diluted with 3 fold larger volume of cold buffered DMEM to restore pH to a normal pH of 7.5.

Caco2/TC7 cells = assay: Proton induced uptake (PIU) in Caco2/TC7 cells, FACS; type: cell-based; settings: pH 5; 5 minutes; P<0.001
Method: Caco-2 cells were cultivated, and were harvested when reaching 80% confluence by the use of trypsin-EDTA. The cell suspensions were immediately diluted in full medium (DMEM with 4.5 mg/ml glucose, 10% FCS), centrifuged and re-suspended in recovery medium (HBSS or PBS).
Once exposure is terminated the suspension is transferred to a small vial where it is either incubated at 37° C. or immediately cooled down to 4° C. All samples are collected together on ice and then simultaneously analyzed.
Acidification is imposed by supplementing the suspension with 10 mM MES buffer and the concentrations of HCl required for reaching the experimental pH level.
The cells are washed by being centrifuged, re-suspended with fresh DMEM (without phenol-red or FCS), incubated at room temperature with probe specific digestive enzymes, where appropriate, centrifuged and washed again.
For FACS analysis, Trypan-blue (0.01%) and PI (2 μg/ml) are added to the cells suspension to quench residual extracellular fluorescence and stain necrotic cells, respectively.

erythrocytes (RBCs) = assay: Proton induced uptake and efflux in erythrocytes (RBCs), flow cytometry; type: cell-based
Method: As shown, PIU in erythrocytes depends on external pH in a constant rate. […] Flow cytometry analyses include FITC intensity geometrical mean±SD presented as fold induction relative to background. n=9 in 3 independent experiments.
RBCs were exposed to external pH 5.4 for time durations of 10, 15, 30, 45 and 60 minutes. […] Flow cytometry analyses in terms of geometrical mean±SD are presented as fold induction relative the fluorescent intensity in the first group (10 min). No statistical difference is found in PIU rate for the different groups (p >0.05 by one way ANOVA, n=9 in 3 independent experiments).
Flow cytometry analyses include FITC intensity geometrical mean±SD presented as fold induction relative to background. n=9 in 3 independent experiments.
The cells were washed and divided into 2 groups, suspended in fresh solution of either pH 7.4 or pH 5.4. Cells from each group were incubated for durations of 10, 20, 30, 45 and 60 minutes, before being analyzed by flow cytometry. Results given in terms of geometrical mean±SD are presented as fold induction relative to cells analyzed immediately following exposure to low pH. n=8 in 2 independent experiments.
Following treatment the cells were washed in PBS-G and analyzed by flow cytometry. Results are presented as geometrical mean of FITC intensity±SD for 50,000 cells per sample.
This apparent saturation may be attributed to a competitive efflux process. […] Next, the cells were washed and re-suspended in fresh PBS-G of either pH 7.4 or 5.4, in the absence of dextran and then incubated at 37° C. for durations of 10, 20, 30, 45 and 60 minutes, followed by flow cytometry analysis (FIG. 32B). Dextran concentrations in RBCs incubated under physiological conditions (pH 7.4) suffers some gradual 20% decrease in value for 60 minutes after PIPC(P<0.05, one tail t-test). However, when RBCs are incubated at pH 5.4, the dextran concentration decline rapidly during the first 10 minutes, losing 50% of their initial value after 20 minutes and continue to decrease at a declining rate for the rest of the period monitored. It appears that long exposure of RBCs to low pH inflict some damage to the cells ability to retain the uptake cargo molecule (FIG. 32b). In an exemplary embodiment of the invention, RBCs are instead subjected to a pulsed treatment regime. […] In an exemplary embodiment of the invention, pulsed uptake is used to avoid/reduce causing leakage in cells and thus reduce efflux. Optionally or alternatively, cells that are sensitive to low pH can be treated. For example, one hour exposures separated by two hour rest periods may be used for siRNA transfection of pH-sensitive cells. […]

Substance: Dextran-FITC
- Folds Uptake mean (COS 5-7 cells; pH 1.6, relative to unexposed cells): 48.09 folds
- Folds Uptake mean (COS 5-7 cells; pH 1.9, relative to unexposed cells): 42.47 folds
- Folds Uptake mean (COS 5-7 cells; pH 2.5, relative to unexposed cells): 47.62 folds
- Folds Uptake mean (COS 5-7 cells; pH 2.9, relative to unexposed cells): 45.54 folds
- Folds Uptake mean (COS 5-7 cells; pH 3.1, relative to unexposed cells): 41.25 folds
- Folds Uptake mean (COS 5-7 cells; pH 3.3, relative to unexposed cells): 20.14 folds
- Folds Uptake mean (COS 5-7 cells; pH 3.5, relative to unexposed cells): 9.575 folds
- Folds Uptake mean (COS 5-7 cells; pH 3.7, relative to unexposed cells): 7.679 folds
- Folds Uptake mean (COS 5-7 cells; pH 4, relative to unexposed cells): 4.776 folds
- Folds Uptake mean (COS 5-7 cells; pH 4.7, relative to unexposed cells): 3.856 folds
- Folds Uptake mean (COS 5-7 cells; pH 5, relative to unexposed cells): 2.594 folds
- Folds Uptake mean (COS 5-7 cells; pH 5.8, relative to unexposed cells): 2.636 folds
- Folds Uptake mean (COS 5-7 cells; pH 6, relative to unexposed cells): 1.483 folds
- Folds Uptake mean (COS 5-7 cells; pH 6.25, relative to unexposed cells): 1.619 folds
- Folds Uptake mean (COS 5-7 cells; pH 7.4 (reference)): 1 folds
- pH at which uptake reaches saturation (COS 5-7 cells; steep elevation of uptake starting at pH 4): 3 pH
- dextran concentration relative to HT29 cells (Caco2/TC7 cells): 2 folds
- external pH at which uptake is significant relative to autofluorescence at pH 7.4 (erythrocytes (RBCs); 70 kD dextran-FITC 10 μM, 5 minutes, P<0.05): < 6 pH
- loss of initial intracellular dextran concentration after loading (erythrocytes (RBCs); incubated at pH 5.4, 37° C., after 20 minutes): 50%
- decrease of intracellular dextran concentration after loading (erythrocytes (RBCs); incubated at pH 7.4, 37° C., 60 minutes after 10 minutes loading at pH 5.4): 20%
- intracellular concentration after three cycles of 10 minutes exposure versus one exposure of 30 minutes (erythrocytes (RBCs); low pH solution, cycles separated by washing and 10 minutes in PBS-G): higher concentration
